Source: patent US12390472B2 (SUZHOU SINOVENT PHARMACEUTICALS CO., LTD., priority 2018, dated 2025)
Read-outs that look alike come from different tables or passages of the source.

Legend:
WSU-DLCL2 cells = assay: Experiment on WSU-DLCL2 cell proliferation (Calcein-AM); assay type: cell-based; settings: Homo sapiens
Protocol: WSU-DLCL2 cells were plated in a 96-well plate and 100 uL of cells (a density of 1×10^5 cells/mL) and 50 uL of compound stock at 3-fold concentration was added to each well, and the final volume was 150 uL/well. After 6 days of culturing, on day 7, the cells in the well plate were mixed well by pipetting, and 50 uL of the cell suspension was pipetted to be tested for cell viability using Calcein-AM. 50 uL of the cell suspension was added to a 96-well plate coated by poly-D-Lysine, and then 50 uL of HBSS containing 2 uM Calcein-AM was added to make the final concentration of Calcein-AM 1 uM. After incubation for 10 min at room temperature, the cells were rapidly centrifuged to be deposited on the bottom of the plate. The cells were cultured in the incubator for another 40 min and then the plate was read on Acumen.
The remaining cells were diluted and then plated in a 96-well plate, and 100 uL of cells and 50 uL of a compound at 3-fold concentration were added to each well for further culturing until day 14, and the cell viability was detected as described above. The IC50 was calculated.

WSU-DLCL2 = assay: Methylated lysine of histone-H3 (H3K27Me3) detection by ELISA, WSU-DLCL2 cells; assay type: cell-based; settings: Homo sapiens, WSUDLCL2, 168 h; WSU-DLCL2, 7 days treatment, H3K27Me3 normalized to total histone-3; read-out: IC50 of cell methylation, WSU-DLCL2
How it was run: (§1)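 Cells were treated 7 days with compound (4-fold dilutions, 20 uM-0.009 nM), then lysed hypotonically with NaCl adjusted to ~100 mM. Lysate-coated plates were probed by ELISA for H3K27Me3 and total H3 (TMB, A450). Methylation signal was normalised to total H3 before curve fitting.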

Pfeiffer = assay: Methylated lysine of histone-H3 (H3K27Me3) detection by ELISA, Pfeiffer cells; assay type: cell-based, human; settings: Homo sapiens, 168 h, 7 days treatment, H3K27Me3 normalized to total histone-3, read-out: IC50 of cell methylation, Pfeiffer
How it was run: as §1

[1] = In vivo pharmacokinetic properties in mice; set-up: species or system mouse; settings: male ICR mice
How it was run: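 Male ICR mice, n=3 per group, dosed once at 5 mg/kg IV in 10% DMSO/90% (20% Captisol) or 250 mg/kg intragastrically in 0.5% CMC-Na/0.1% Tween 80 (pH 3-4). EDTA-K2 plasma sampled from 5 min to 24 h; compound levels measured by LC-MS/MS.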

Which results are given for CCN(c1cc(O[C@H]2C[C@H](N3C[C@@H](C)O[C@@H](C)C3)C2)cc(C(=O)NCc2c(C)cc(C)[nH]c2=O)c1C)C1CCC(F)(F)CC1 [Example 45, 3-((4,4-difluorocyclohexyl)(ethyl)amino)-N-((4,6-dimethyl-2-oxo-1,2-dihydropyridin-3-yl)methyl)-5-(trans-3-(cis-2,6-dimethylmorpholinyl)cyclobutoxy)-2-methylbenzamide]?
IC50 (WSU-DLCL2 cells; WSUDLCL2, 168 h, WSU-DLCL2, Day 7, read-out: IC50 WSU-DLCL2 proliferation Day 7): 91 nM; IC50 (WSU-DLCL2 cells; WSUDLCL2, 336 h, WSU-DLCL2, Day 14, read-out: IC50 WSU-DLCL2 proliferation Day 14): 18 nM; IC50 (WSU-DLCL2): 50 to 500 nM; IC50 (Pfeiffer): 50 to 500 nM; F ([1]; intragastric 250 mg/kg vs intravenous 5 mg/kg): 43.5%; CL ([1]; single intravenous 5 mg/kg and intragastric 250 mg/kg study): 37.0 ± 8.82 mL/min/lg; AUC(0-inf) ([1]; mouse, plasma, oral, single intravenous 5 mg/kg and intragastric 250 mg/kg study): 50900 ng·h/mL; Cmax ([1]; mouse, plasma, oral, single intravenous 5 mg/kg and intragastric 250 mg/kg study, read-out: Cmax): 10500 ± 436 ng/mL; Tmax ([1]; mouse, plasma, oral, single intravenous 5 mg/kg and intragastric 250 mg/kg study, read-out: Tmax): 1 h; half-life ([1]; mouse, plasma, single intravenous 5 mg/kg and intragastric 250 mg/kg study): 7.44 ± 2.75 h
